The subject of this assay is cell lines carrying AFP receptor. Description: Anti-cancer activities: in vitro antiproliferative assay (IC50). The conditions noted are these: samples in PBS pH 7.4; concentration expressed as Pac or Pac-succinate; read-out: IC50 ± std. error (nM) for Pac or Pac-succinate. The format is cell-based.

In the case of `CC(=O)O[C@H]1C(=O)[C@@]2(C)[C@H]([C@H](OC(=O)c3ccccc3)[C@]3(O)C[C@H](OC(=O)[C@H](O)[C@@H](NC(=O)c4ccccc4)c4ccccc4)C(C)=C1C3(C)C)[C@]1(OC(C)=O)CO[C@@H]1C[C@@H]2O` [Paclitaxel], the IC50 stood at 3.4 ± 0.8 nM.

For the molecule “paclitaxel succinate [Paclitaxel-Succinate]”, the IC50 stood at 26.5 ± 11.3 nM.

One may read the IC50 as the concentration that inhibits the measured activity by half.

The record behind these values is patent US20180015066A1, “DRUG COMPLEXES COMPRISING ALPHA-FETOPROTEIN” (UNIVERSITY HEALTH NETWORK, priority 2015, published 2018).
